Results on 1 compound are retold here after article PMC5171790, “Ribavirin suppresses bacterial virulence by targeting LysR-type transcriptional regulators” (Scientific Reports, 2016).

In general, Kd refers to the constant that tells how readily two partners part at equilibrium. Higher therefore signals lower affinity.

One experiment addresses Hrg. As to the kind of experiment: ITC. Particulars: 10 mM sodium phosphate, 50 mM NaCl, pH 7.4, 25 °C; single-site model.
In a further experiment the target is T1, AphB (Vibrio cholerae, UniProt Q9KT56).
T1 construct: gene VC_1049
As to the kind of experiment: biochemical.

Molecules are shown by their SMILES.

Turning to `NC(=O)c1ncn([C@@H]2O[C@H](CO)[C@@H](O)[C@H]2O)n1` [ribavirin, 1-D-ribofuranosyl-1H-1,2,4-triazole-3-carboxamide], the figures for the Kd on Hrg and at AphB were 235 µM and about 300 µM, respectively.
